Measured values taken from patent US20240301319A1, “PERFUMING COMPOSITIONS” (FIRMNICH SA, priority 2017, published 2024).
Like-named read-outs stand apart in the source and are kept apart here.

Columns and labels:
[1] = Volatility of perfuming compounds (Tables 4 to 10), with top/middle/bottom note type; type: physicochemical
Protocol: In some aspects, the first perfume accord comprises perfuming compounds having a volatility ranging from 70,000 to 100 μg/l in air. In some aspects, perfuming compounds having a volatility ranging from 70,000 to 100 μg/l in air are referred to as “top notes”.
In some aspects, the second perfume accord comprises perfuming compounds having a volatility ranging from 99 to 50 μg/l in air. In some aspects, perfuming compounds having a volatility ranging from 99 to 50 μg/l in air are referred to as “middle notes”.
In some aspects, the third perfume accord comprises perfuming compounds having a volatility ranging from 49 to 0.1 μg/l in air. In some aspects, perfuming compounds having a volatility ranging from 49 to 0.1 μg/l in air are referred to as “bottom notes”.
Tables 4 to 10 describe top, middle and bottom note perfuming compounds for watery, green, fruity, citrus, sweet, gourmand and woody notes respectively.

[2] = Odor threshold and odor value of perfuming compounds (Tables 4 to 10)
[3] = Table 4, watery note, top, middle or bottom note
[4] = Table 4, watery note, equals volatility divided by odor threshold
[5] = Table 7, citrus note, top, middle or bottom note
[6] = Table 7, citrus note, equals volatility divided by odor threshold
[7] = Table 6, perfuming compounds having a fruity note
[8] = Table 6, perfuming compounds having a fruity note, note type by volatility
[9] = Table 8, perfuming compounds having a sweet note
[10] = Table 8, perfuming compounds having a sweet note, note type by volatility
[11] = note type (Top/Middle/Bottom) by volatility, perfuming compounds having a green note
[12] = perfuming compounds having a green note
[13] = Table 10, perfuming compounds having a woody note, note type by volatility
[14] = Table 9, perfuming compounds having a gourmand note, note type by volatility

(2R)-2-methyl-4-[(1R)-2,2,3-trimethyl-3-cyclopenten-1-yl]-4-pentenal (A) + (2S)-2-methyl-4-[(1R)-2,2,3-trimethyl-3-cyclopenten-1-yl]-4-pentenal (B)
Volatility (μg/l air) ([1]; Table 4, watery note): 63.49 μg/l air | Type [1, 3]: middle (perfuming compounds having a volatility ranging from 99 to 50 μg/l in air are referred to as “middle notes”) | Odor Threshold (μg/l air) ([2]; Table 4, watery note): 2.22E−03 μg/l air | Odor Value [2, 4]: 2.86E+04

3-(3,3-dimethyl-2,3-dihydro-1H-inden-5-yl)propanal (A) + 3-(1,1-dimethyl-2,3-dihydro-1H-inden-4-yl)propanal (B) + 3-(1,1-dimethyl-2,3-dihydro-1H-inden-5-yl)propanal (C)
Volatility (μg/l air) ([1]; Table 4, watery note): 13.68 μg/l air | Type [1, 3]: bottom (perfuming compounds having a volatility ranging from 49 to 0.1 μg/l in air are referred to as “bottom notes”) | Volatility (μg/l air) ([1]; Table 7, citrus note): 13.68 μg/l air | Type [1, 5]: Bottom | Odor Threshold (μg/l air) ([2]; Table 4, watery note): 4.00E−03 μg/l air | Odor Value [2, 4]: 3.42E+03 | Odor Threshold (μg/l air) ([2]; Table 7, citrus note): 4.00E−03 μg/l air | Odor Value [2, 6]: 3.42E+03

Cc1occc(=O)c1O [3-HYDROXY-2-METHYL-4(4H)-PYRANONE]
Volatility [1, 7]: 92.42 μg/l air | Type [1, 8]: Middle | Volatility [1, 9]: 92.42 μg/l air | Type [1, 10]: Middle | Odor Threshold [2, 7]: 4.17E−04 μg/l air | Odor Value [2, 7]: 2.22E+05 | Odor Threshold [2, 9]: 4.17E−04 μg/l air | Odor Value [2, 9]: 2.22E+05

CCCC(=NO)C(C)C [2-METHYL-3-HEXANONE OXIME]
Type [1, 11]: Top | Volatility (μg/l air) [1, 12]: 687.75 μg/l air | Odor Threshold (μg/l air) [2, 12]: 4.81E−04 μg/l air

CC/C(=C\C[C@H]1CC=C(C)C1(C)C)CO
Type [1, 13]: Bottom | Volatility ([1]; Table 10, woody note): 2.75 μg/l air | Odor Threshold ([2]; Table 10, woody note): 2.41E−05 μg/l air

CCOC(=O)C1OC1(C)c1ccccc1 (stereo not shown) [ETHYL 2,3-EPDXY-3-PHENYLBUTANOATE]
Volatility [1, 7]: 12.97 μg/l air | Type [1, 8]: Bottom | Odor Threshold [2, 7]: 2.28E−05 μg/l air | Odor Value [2, 7]: 5.68E+05

CC(C)CC1CC(C)(O)CCO1 (racemic) [(+−)-TETRAHYDRO-2-ISOBUTYL-4-METHYL-4(2H)-PYRANOL]
Volatility (μg/l air) ([1]; Table 4, watery note): 79.79 μg/l air | Type [1, 3]: middle (perfuming compounds having a volatility ranging from 99 to 50 μg/l in air are referred to as “middle notes”) | Odor Threshold (μg/l air) ([2]; Table 4, watery note): 1.35E−02 μg/l air | Odor Value [2, 4]: 5.91E+03

(Z)-3,7-DIMETHYL-1,6-NONADIEN-3-OL (A) + (E)-3,7-DIMETHYL-1,6-NONADIEN-3-OL (B)
Volatility (μg/l air) ([1]; Table 7, citrus note): 283.43 μg/l air | Type [1, 5]: Top | Odor Threshold (μg/l air) ([2]; Table 7, citrus note): 1.38E−03 μg/l air | Odor Value [2, 6]: 2.05E+05

CC(=O)c1ccccc1 [1-phenylethanone]
Volatility [1, 9]: 1728.98 μg/l air | Type [1, 10]: Top | Odor Threshold [2, 9]: 6.61E−03 μg/l air | Odor Value [2, 9]: 2.62E+05

CCCCCCCCCC=O [DECANAL″]
Volatility (μg/l air) ([1]; Table 4, watery note): 466.56 μg/l air | Type [1, 3]: TOP (perfuming compounds having a volatility ranging from 70,000 to 100 μg/l in air are referred to as “top notes”) | Odor Threshold (μg/l air) ([2]; Table 4, watery note): 1.92E−03 μg/l air | Odor Value [2, 4]: 2.43E+05

(1S,4S,9S,10R,13R)-5,5,9,13-tetramethyl-14,16-dioxatetracyclo[11.2.1.0~1,10~.0~4,9~]hexadecane (A) + (1R,4S,9S,10R,13S)-5,5,9,13-tetramethyl-14,16-dioxatetracyclo[11.2.1.0~1,10~.0~4,9~]hexadecane (B)
Volatility (μg/l air) ([1]; Table 4, watery note): 6.77 μg/l air | Type [1, 3]: bottom (perfuming compounds having a volatility ranging from 49 to 0.1 μg/l in air are referred to as “bottom notes”) | Odor Threshold (μg/l air) ([2]; Table 4, watery note): 4.36E−04 μg/l air | Odor Value [2, 4]: 1.55E+04

CCCCCCC#CC(=O)OC [METHYL 2-NONYNOATE]
Volatility (μg/l air) ([1]; Table 4, watery note): 91.76 μg/l air | Type [1, 3]: middle (perfuming compounds having a volatility ranging from 99 to 50 μg/l in air are referred to as “middle notes”) | Type [1, 11]: Middle | Volatility (μg/l air) [1, 12]: 91.76 μg/l air | Odor Threshold (μg/l air) ([2]; Table 4, watery note): 1.60E−03 μg/l air | Odor Value [2, 4]: 5.74E+04 | Odor Threshold (μg/l air) [2, 12]: 1.60E−03 μg/l air

CCCCCCCCCCC=O [undecanal]
Volatility (μg/l air) ([1]; Table 4, watery note): 178.29 μg/l air | Type [1, 3]: TOP (perfuming compounds having a volatility ranging from 70,000 to 100 μg/l in air are referred to as “top notes”) | Odor Threshold (μg/l air) ([2]; Table 4, watery note): 1.65E−03 μg/l air | Odor Value [2, 4]: 1.08E+05

C[C@@H]1CC[C@H]2C(C)(C)[C@H]3C[C@@]12C[C@@H]1OC(C)(C)O[C@@]13C
Type [1, 13]: Bottom | Volatility ([1]; Table 10, woody note): 0.00 μg/l air | Odor Threshold ([2]; Table 10, woody note): 3.90E−06 μg/l air

CCCCCCCCOC(C)=O [octyl acetate]
Volatility [1, 7]: 666.51 μg/l air | Type [1, 8]: TOP (perfuming compounds having a volatility ranging from 70,000 to 100 μg/l in air are referred to as “top notes”) | Volatility (μg/l air) ([1]; Table 7, citrus note): 666.51 μg/l air | Type [1, 5]: Top | Odor Threshold (μg/l air) ([2]; Table 7, citrus note): 1.76E−01 μg/l air | Odor Value [2, 6]: 3.78E+03

CC(C)(C)c1ccc2c(c1)OCC(=O)CO2 [7-(2-methyl-2-propanyl)-2H-1,5-benzodioxepin-3(4H)-one]
Volatility (μg/l air) ([1]; Table 4, watery note): 4.37 μg/l air | Type [1, 3]: bottom (perfuming compounds having a volatility ranging from 49 to 0.1 μg/l in air are referred to as “bottom notes”) | Type [1, 11]: Bottom | Volatility (μg/l air) [1, 12]: 4.37 μg/l air | Odor Threshold (μg/l air) ([2]; Table 4, watery note): 1.53E−04 μg/l air | Odor Value [2, 4]: 2.85E+04 | Odor Threshold (μg/l air) [2, 12]: 1.53E−04 μg/l air

CCCCC(CC)C(=O)OC (racemic) [(+−)-methyl 2-ethylhexanoate]
Volatility [1, 7]: 6677.64 μg/l air | Type [1, 8]: TOP (perfuming compounds having a volatility ranging from 70,000 to 100 μg/l in air are referred to as “top notes”) | Type [1, 13]: Top | Volatility ([1]; Table 10, woody note): 6677.64 μg/l air | Odor Threshold ([2]; Table 10, woody note): 1.74E−01 μg/l air

COc1cc(C=O)ccc1OC(=O)C(C)C
Volatility [1, 7]: 1.01 μg/l air | Type [1, 8]: Bottom | Volatility [1, 9]: 1.01 μg/l air | Type [1, 10]: Bottom | Volatility ([1]; Table 9, gourmand note): 1.01 μg/l air | Type [1, 14]: Bottom | Odor Threshold [2, 7]: 7.33E−05 μg/l air | Odor Value [2, 7]: 1.38E+04 | Odor Threshold [2, 9]: 7.33E−05 μg/l air | Odor Value [2, 9]: 1.38E+04 | Odor Threshold ([2]; Table 9, gourmand note): 7.33E−05 μg/l air

C=CC1(C)CCCC(C)(C)O1 (racemic)
Type [1, 11]: Top | Volatility (μg/l air) [1, 12]: 23116.66 μg/l air | Odor Threshold (μg/l air) [2, 12]: 1.64E−01 μg/l air

CCC(O)COC1CCCCC1C(C)(C)C (racemic)
Type [1, 13]: Top | Volatility ([1]; Table 10, woody note): 205.05 μg/l air | Odor Threshold ([2]; Table 10, woody note): 3.53E−02 μg/l air

CCCCCC/C=C/C(=O)OC [methyl (2E)-2-nonenoate]
Volatility [1, 7]: 264.84 μg/l air | Type [1, 8]: TOP (perfuming compounds having a volatility ranging from 70,000 to 100 μg/l in air are referred to as “top notes”) | Type [1, 11]: Top | Volatility (μg/l air) [1, 12]: 264.84 μg/l air | Odor Threshold (μg/l air) [2, 12]: 5.84E−02 μg/l air

CC(C)OCCc1ccccc1 [(2-ISOPROPOXYETHYL)BENZENE]
Volatility (μg/l air) [1]: 1714.82 μg/l air | Type [1, 11]: Top | Odor Threshold (μg/l air) [2, 12]: 1.65E−03 μg/l air

CC1=CCC(CCC(C)C(C)O)C1(C)C (racemic)
Type [1, 13]: Bottom | Volatility ([1]; Table 10, woody note): 5.22 μg/l air | Odor Threshold ([2]; Table 10, woody note): 1.52E−03 μg/l air

10-undecenal (A) + (9E)-9-undecenal (B) + (9Z)-9-undecenal (C)
Volatility (μg/l air) ([1]; Table 4, watery note): 131.95 μg/l air | Type [1, 3]: TOP (perfuming compounds having a volatility ranging from 70,000 to 100 μg/l in air are referred to as “top notes”) | Odor Threshold (μg/l air) ([2]; Table 4, watery note): 3.77E−05 μg/l air | Odor Value [2, 4]: 3.50E+06

(−)-(1S)-2,6,6-TRIMETHYL-BICYCLO[3.1.1]HEPT-2-ENE
Type [1, 11]: Top | Volatility (μg/l air) [1, 12]: 33722.60 μg/l air | Odor Threshold (μg/l air) [2, 12]: 1.02E−01 μg/l air

CCOC(=O)/C=C/c1ccccc1 [ETHYL (E)-3-PHENYL-2-PROPENOATE]
Volatility [1, 7]: 20.55 μg/l air | Type [1, 8]: Bottom | Odor Threshold [2, 7]: 2.38E−05 μg/l air | Odor Value [2, 7]: 8.62E+05

CCCCC[C@H]1C(=O)CC[C@@H]1CC(=O)OC (racemic) [methyl 2-((1RS,2RS)-3-oxo-2-pentylcyclopentyl)acetate]
Volatility (μg/l air) ([1]; Table 7, citrus note): 2.12 μg/l air | Type [1, 5]: Bottom | Odor Threshold (μg/l air) ([2]; Table 7, citrus note): 5.77E−04 μg/l air | Odor Value [2, 6]: 3.67E+03

CCCCCC(=O)O [HEXANOIC ACID]
Volatility [1, 9]: 197.90 μg/l air | Type [1, 10]: Top | Volatility ([1]; Table 9, gourmand note): 197.90 μg/l air | Type [1, 14]: Top | Type [1, 11]: Top | Volatility (μg/l air) [1, 12]: 197.90 μg/l air | Odor Threshold [2, 9]: 1.82E−02 μg/l air | Odor Value [2, 9]: 1.09E+04 | Odor Threshold ([2]; Table 9, gourmand note): 1.82E−02 μg/l air | Odor Threshold (μg/l air) [2, 12]: 1.82E−02 μg/l air

COC(=O)/C=C/c1ccccc1 [METHYL (E)-3-PHENYL-2-PROPENOATE]
Volatility [1, 7]: 61.65 μg/l air | Type [1, 8]: Middle | Odor Threshold [2, 7]: 3.13E−03 μg/l air | Odor Value [2, 7]: 1.97E+04

CC(C)[C@@H]1CC[C@@H](C)CC1=NO
Type [1, 11]: Bottom | Volatility (μg/l air) [1, 12]: 22.29 μg/l air | Odor Threshold (μg/l air) [2, 12]: 5.52E−05 μg/l air
